Results on nine compounds are retold here after paper PMC4620681 (Bioorganic & medicinal chemistry letters, 2015).

For assay [1], the target named is hKOR (Homo sapiens, UniProt P41145). The experiment in a line: biochemical. In kind it is biochemical. As to conditions: for Emax: read-out: Emax (percentage of maximal response to U50,488H); for Emax at 1 µM: read-out: Emax at 1 μM (percentage of maximal response to U50,488H).
For assay [2], the target named is human KOR (hKOR) (Homo sapiens, UniProt P41145). As to conditions: cited from earlier work.
human KOR (hKOR), sequence (P41145 whole entry): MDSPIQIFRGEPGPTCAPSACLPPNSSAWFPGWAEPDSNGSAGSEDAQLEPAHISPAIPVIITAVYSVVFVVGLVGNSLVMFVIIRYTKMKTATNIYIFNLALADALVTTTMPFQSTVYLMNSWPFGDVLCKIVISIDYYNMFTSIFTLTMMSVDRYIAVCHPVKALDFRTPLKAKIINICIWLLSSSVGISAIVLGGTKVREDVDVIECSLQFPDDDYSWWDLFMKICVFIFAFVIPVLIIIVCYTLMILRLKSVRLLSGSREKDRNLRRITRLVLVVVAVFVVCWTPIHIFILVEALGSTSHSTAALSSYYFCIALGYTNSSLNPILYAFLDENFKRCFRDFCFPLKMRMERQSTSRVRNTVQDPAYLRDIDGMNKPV

hKOR, sequence (P41145 whole entry): as above

Consider `COC[C@@]1(C)C[C@@H](C(=O)OC)[C@]2(C)CC[C@H]3C(=O)O[C@H](c4ccoc4)C[C@]3(C)[C@H]2C1=O` [Compound 9a, 2-methyl-2-methoxymethyl-salvinorin ether], for which, in assay [1], the “agonist / antagonist activity at KOR” value is given as “potent full agonist” and the Emax was determined as 123 ± 16%. Regarding `CC[C@]1(COC)C[C@@H](C(=O)OC)[C@]2(C)CC[C@H]3C(=O)O[C@H](c4ccoc4)C[C@]3(C)[C@H]2C1=O` [Compound 10a], the Emax at 1 µM in assay [1] was 83%.

For the compound `C=CC[C@]1(COC)C[C@@H](C(=O)OC)[C@]2(C)CC[C@H]3C(=O)O[C@H](c4ccoc4)C[C@]3(C)[C@H]2C1=O` [Compound 12a], the Emax at 1 µM in assay [1] was 99%. Consider `COC[C@@]1(C)C[C@@H](C(=O)OC)[C@]2(C)CC[C@@H]3C(=O)O[C@H](c4ccoc4)C[C@]3(C)[C@H]2C1=O` [Compound 9b], for which the Emax in assay [1] is 103 ± 16%. On to `CC[C@]1(COC)C[C@@H](C(=O)OC)[C@]2(C)CC[C@@H]3C(=O)O[C@H](c4ccoc4)C[C@]3(C)[C@H]2C1=O` [Compound 10b], for which, in assay [1], the Emax at 1 µM worked out at 81%. Same read-out and setting: with `COC[C@@]1(CCOCCI)C[C@@H](C(=O)OC)[C@]2(C)CC[C@H]3C(=O)O[C@H](c4ccoc4)C[C@]3(C)[C@H]2C1=O` [Compound 14a] the figure was 98%. For `COC(=O)[C@@H]1C[C@H](O)C(=O)[C@H]2[C@@]1(C)CC[C@H]1C(=O)O[C@H](c3ccoc3)C[C@]21C` [Compound 2, Salvinorin B], in assay [2], the “affinity to KOR (in words)” value was “comparatively much lower affinity” and the “fold lower affinity than its epimer” value is reported as 3 fold. For the compound `C=CC[C@]1(COC)C[C@@H](C(=O)OC)[C@]2(C)CC[C@@H]3C(=O)O[C@H](c4ccoc4)C[C@]3(C)[C@H]2C1=O` [Compound 12b], the Emax at 1 µM in assay [1] was 84%. The same measure, in the same setting: as for `COC[C@@]1(CCOCCI)C[C@@H](C(=O)OC)[C@]2(C)CC[C@@H]3C(=O)O[C@H](c4ccoc4)C[C@]3(C)[C@H]2C1=O` [Compound 14b], the figure is 85%.
